Molecules are shown by their SMILES.

A word on the IC50: it is the concentration that gives 50% inhibition. Read a high IC50 as weaker potency in that assay. One may read the EC50 as the concentration needed to bring the measured effect to its halfway point.

Holding throughout (assay type): cell-based
The subject of experiment [1] is YAP/TAZ-TEAD transcription. In words: Reporter gene assay for measuring the inhibition of YAP/TAZ-TEAD transcription (TEAD-responsive element luciferase reporter, Hek293T cells). To be noted: Hek293T cells transfected with TEAD-responsive element luciferase reporter, 24 hours incubation. In short, it runs like this:
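HEK293T cells transiently transfected with a TEAD-responsive luciferase reporter are plated on compounds and incubated 24 h at 37 °C/5% CO2, then read with SteadyLite luminescence. Percent inhibition is normalised to vehicle (0%) and a positive-control inhibitor (100%); IC50 is derived from these values.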
(In general: A reporter such as luciferase makes a cellular process visible.)

A further experiment has as its system NCI-H226. Description: Mesothelioma cell line proliferation assay (ATPlite), NCI-H226. To be noted: NCI-H226 cells, 6 days with compound, ATPlite cell viability. On the procedure: (§1) Mesothelioma cell lines, NCI-H226 and NCI-H2052 (both sourced from the ATCC cell culture collection) were plated in 96-well plates (Corning® 96 Well White Polystyrene Microplate clear flat bottom, white polystyrene (TC-Treated)), at 1500 cells/well in full medium (RPMI 1640 ATCC modification with L-glutamine, HEPES, Phenol Red, Sodium Pyruvate, High glucose, Low sodium bicarbonate and 10% fetal bovine serum). Cells were incubated overnight at 37° C. in an incubator with 5% CO2. Then compounds, dissolved in DMSO, were added in dose-response. Cells were incubated with compound dilutions for another 6 days at 37° C. in an incubator with 5% CO2. Cell viability was quantitated using the ATPlite kit (Perkin-Elmer) and the luminescence was read-out using an Envision instrument (Perkin-Elmer). The amount of relative light units produced using the ATPlite kit was used to calculate percent of inhibition.
(§2) The activities of some example compounds are depicted in Table 4. The activity ranges A, B and C refer to EC50 values in the mesothelioma cell line proliferation assay as described as follows: “A”: EC50<1 μM; “B”: 1 μM≤EC50<10 μM and “C”: EC50>10 μM; NT: not tested.
(ATP-based viability assays read luminescence as a measure of living cells.)

A further experiment deals with NCI-H2052. Description: Mesothelioma cell line proliferation assay (ATPlite), NCI-H2052. As to conditions: NCI-H2052 cells, 6 days with compound, ATPlite cell viability. On the procedure: as §1, §2

In experiment [1], `C=CC(=O)NCC1Cc2c(OCc3cc[nH]c(=O)c3)cccc2N(c2ccc(C(F)(F)F)cc2)C1` (single isomer, unassigned) [Cpd. No. 6-En2, (R)- or (S)-N-((5-((2-oxo-1,2-dihydropyridin-4-yl)methoxy)-1-(4-(trifluoromethyl)phenyl)-1,2,3,4-tetrahydroquinolin-3-yl)methyl)acrylamide] displayed an IC50 of less than 1 µM. For the same compound, the EC50 is less than 1 µM in the experiment with NCI-H226 (Homo sapiens, 144 h) and less than 1 µM with NCI-H2052 (Homo sapiens, 144 h).
In turn, `CC(=O)NCC1Cc2nc(C)ccc2N(c2ccc(C(F)(F)F)cc2)C1` (single isomer, unassigned) [Cpd. No. 26-En2, (R)- or (S)-N-((6-methyl-1-(4-(trifluoromethyl)phenyl)-1,2,3,4-tetrahydro-1,5-naphthyridin-3-yl)methyl)acetamide] came in with a half-maximal inhibitory concentration (IC50) in experiment [1] of less than 1 µM. Also, the EC50 with NCI-H226 (Homo sapiens, 144 h) is less than 1 µM; in the experiment with NCI-H2052 (Homo sapiens, 144 h), less than 1 µM.
For the compound `C=CC(=O)NCC1Cc2c(OCc3cc[nH]c(=O)c3)cccc2N(c2ccc(C(F)(F)F)cc2)C1` (single isomer, unassigned) [Cpd. No. 6-En1, (R)- or (S)-N-((5-((2-oxo-1,2-dihydropyridin-4-yl)methoxy)-1-(4-(trifluoromethyl)phenyl)-1,2,3,4-tetrahydroquinolin-3-yl)methyl)acrylamide], the IC50 in experiment [1] (Homo sapiens, HEK-293T, 24 h) is less than 1 µM. Moreover, in the experiment on NCI-H226, the EC50 is less than 1 µM.
Regarding `C=CC(=O)NCC1Cc2ncccc2N(c2ccc(C(F)(F)F)cc2)C1` (single isomer, unassigned) [Cpd. No. 10-En1, (R)- or (S)-N-((1-(4-(trifluoromethyl)phenyl)-1,2,3,4-tetrahydro-1,5-naphthyridin-3-yl)methyl)acrylamide], the IC50 in experiment [1] (Homo sapiens, HEK-293T, 24 h) is less than 1 µM. Moreover, the EC50 in the experiment with NCI-H226 (Homo sapiens, 144 h) is less than 1 µM; in the experiment with NCI-H2052 (Homo sapiens, 144 h), less than 1 µM.
As for `[2H]C([2H])([2H])C(=O)NCC1Cc2ncccc2N(c2ccc(C(F)(F)F)cc2)C1` (single isomer, unassigned) [Cpd. No. 34-En2, (R)- or (S)-N-((1-(4-(trifluoromethyl)phenyl)-1,2,3,4-tetrahydro-1,5-naphthyridin-3-yl)methyl)acetamide-2,2,2-d3], in experiment [1], the IC50 is less than 1 µM. For the same compound, the EC50 in the experiment on NCI-H226 (Homo sapiens, 144 h) is less than 1 µM; in the experiment on NCI-H2052 (Homo sapiens, 144 h), less than 1 µM.
With `CCC(=O)NCC1Cc2c(OCc3cc[nH]c(=O)c3)cccc2N(c2ccc(C(F)(F)F)cc2)C1` (centres unmarked) [Cpd. No. 7, N-((5-((2-oxo-1,2-dihydropyridin-4-yl)methoxy)-1-(4-(trifluoromethyl)phenyl)-1,2,3,4-tetrahydroquinolin-3-yl)methyl)propionamide], the IC50 in experiment [1] (Homo sapiens, HEK-293T, 24 h) is less than 1 µM. Further, the EC50 in the experiment on NCI-H226 (Homo sapiens, 144 h) is less than 1 µM; in the experiment on NCI-H2052 (Homo sapiens, 144 h) it was less than 1 µM.
On to `CC(=O)NCC1(C)Cc2ncccc2N(c2ccc(C(F)(F)F)cc2)C1` (single isomer, unassigned) [Cpd. No. 47-En1, (R)- or (S)-N-((3-methyl-1-(4-(trifluoromethyl)phenyl)-1,2,3,4-tetrahydro-1,5-naphthyridin-3-yl)methyl)acetamide], for which the IC50 in experiment [1] is less than 1 µM. In addition, the EC50 was less than 1 µM in the experiment with NCI-H226 (Homo sapiens, 144 h) and less than 1 µM in the experiment on NCI-H2052 (Homo sapiens, 144 h).
`C=CC(=O)NCC1Cc2c(OCc3cc[nH]c(=O)c3)cccc2N(c2ccc(C(F)(F)F)cc2)C1` (centres unmarked) [Cpd. No. 6, N-((5-((2-oxo-1,2-dihydropyridin-4-yl)methoxy)-1-(4-(trifluoromethyl)phenyl)-1,2,3,4-tetrahydroquinolin-3-yl)methyl)acrylamide] displayed an IC50 in experiment [1] (Homo sapiens, HEK-293T, 24 h) of less than 1 µM. For the same compound, the EC50 in the experiment on NCI-H226 (Homo sapiens, 144 h) is less than 1 µM; with NCI-H2052 (Homo sapiens, 144 h), less than 1 µM.
The compound `C=CC(=O)NCC1Cc2ncccc2N(c2ccc(C(F)(F)F)cc2)C1` (centres unmarked) [Cpd. No. 10, N-((1-(4-(trifluoromethyl)phenyl)-1,2,3,4-tetrahydro-1,5-naphthyridin-3-yl)methyl)acrylamide] came in with an IC50 in experiment [1] (Homo sapiens, HEK-293T, 24 h) of less than 1 µM. For the same compound, the EC50 with NCI-H226 (Homo sapiens, 144 h) was less than 1 µM; in the experiment on NCI-H2052 (Homo sapiens, 144 h), less than 1 µM.
With `C=CC(=O)NCC1Cc2c(OCc3cc(=O)[nH]c(=O)n3C)cccc2N(c2ccc(C(F)(F)F)cc2)C1` (single isomer, unassigned) [Cpd. No. 14-En1, (R)- or (S)-N-((5-((3-methyl-2,6-dioxo-1,2,3,6-tetrahydropyrimidin-4-yl)methoxy)-1-(4-(trifluoromethyl)phenyl)-1,2,3,4-tetrahydroquinolin-3-yl)methyl)acrylamide], the IC50 in experiment [1] (Homo sapiens, HEK-293T, 24 h) is less than 1 µM. For the same compound, the EC50 was less than 1 µM in the experiment on NCI-H226 (Homo sapiens, 144 h) and less than 1 µM with NCI-H2052 (Homo sapiens, 144 h).
Compound `C=CC(=O)NCC1Cc2c(CCN3CC(=O)NC(=O)C3)cccc2N(c2ccc(C(F)(F)F)cc2)C1` (centres unmarked) [Cpd. No. 11, N-((5-(2-(3,5-dioxopiperazin-1-yl)ethyl)-1-(4-(trifluoromethyl)phenyl)-1,2,3,4-tetrahydroquinolin-3-yl)methyl)acrylamide] registered an IC50 in experiment [1] (Homo sapiens, HEK-293T, 24 h) of less than 1 µM. Further, the EC50 in the experiment on NCI-H226 (Homo sapiens, 144 h) is less than 1 µM; in the experiment on NCI-H2052 (Homo sapiens, 144 h), less than 1 µM.
With `C=CC(=O)NCC1Cc2c(OCc3cc(=O)[nH]c(=O)n3C)cccc2N(c2ccc(C(F)(F)F)cc2)C1` (single isomer, unassigned) [Cpd. No. 14-En2, (R)- or (S)-N-((5-((3-methyl-2,6-dioxo-1,2,3,6-tetrahydropyrimidin-4-yl)methoxy)-1-(4-(trifluoromethyl)phenyl)-1,2,3,4-tetrahydroquinolin-3-yl)methyl)acrylamide], the EC50 in the experiment on NCI-H226 and with NCI-H2052 was less than 1 µM throughout.
In experiment [1], `COc1ccc2c(n1)CC(CNC(C)=O)CN2c1ccc(C(F)(F)F)cc1` (single isomer, unassigned) [Cpd. No. 22-En2, (R)- or (S)-N-((6-methoxy-1-(4-(trifluoromethyl)phenyl)-1,2,3,4-tetrahydro-1,5-naphthyridin-3-yl)methyl)acetamide] displayed an IC50 of less than 1 µM. Moreover, the EC50 in the experiment on NCI-H226 (Homo sapiens, 144 h) is less than 1 µM; in the experiment with NCI-H2052 (Homo sapiens, 144 h), less than 1 µM.
For the compound `CCC(=O)NCC1Cc2ncccc2N(c2ccc(C(F)(F)F)cc2)C1` (single isomer, unassigned) [Cpd. No. 17-En2, (R)- or (S)-N-((1-(4-(trifluoromethyl)phenyl)-1,2,3,4-tetrahydro-1,5-naphthyridin-3-yl)methyl)propionamide], the IC50 in experiment [1] was less than 1 µM. Further, the EC50 with NCI-H226 (Homo sapiens, 144 h) is less than 1 µM; in the experiment on NCI-H2052 (Homo sapiens, 144 h), less than 1 µM.
In experiment [1], `CC(=O)NCC1Cc2ncccc2N(c2ccc(C(F)(F)F)cc2)C1` (single isomer, unassigned) [Cpd. No. 12-En2, (R)- or (S)-N-((1-(4-(trifluoromethyl)phenyl)-1,2,3,4-tetrahydro-1,5-naphthyridin-3-yl)methyl)acetamide] displayed an IC50 of less than 1 µM. In addition, the EC50 with NCI-H226 (Homo sapiens, 144 h) was less than 1 µM; in the experiment with NCI-H2052 (Homo sapiens, 144 h) it was less than 1 µM.
For the compound `CC(=O)NCC1Cc2nc(C(F)F)ccc2N(c2ccc(C(F)(F)F)cc2)C1` (centres unmarked) [Cpd. No. 61, N-((6-(difluoromethyl)-1-(4-(trifluoromethyl)phenyl)-1,2,3,4-tetrahydro-1,5-naphthyridin-3-yl)methyl)acetamide], the IC50 in experiment [1] (Homo sapiens, HEK-293T, 24 h) fell in the range of 1 to 10 µM.
The same measure, in the same setting: to `CC(=O)NCc1cc2c(c(-c3ccc(C(F)(F)F)cc3)c1)CN(C)CC2` [Cpd. No. 46, N-((2-methyl-8-(4-(trifluoromethyl)phenyl)-1,2,3,4-tetrahydroisoquinolin-6-yl)methyl)acetamide] belongs more than 10 µM; to `[2H]C([2H])([2H])C(=O)NCC1Cc2ncccc2N(c2ccc(C(F)(F)F)cc2)C1` (centres unmarked) [Cpd. No. 34, N-((1-(4-(trifluoromethyl)phenyl)-1,2,3,4-tetrahydro-1,5-naphthyridin-3-yl)methyl)acetamide-2,2,2-d3], less than 1 µM; to `CS(=O)(=O)NCC1Cc2c(OCc3cc(=O)[nH]c(=O)[nH]3)cccc2N(c2ccc(C(F)(F)F)cc2)C1` (centres unmarked) [Cpd. No. 8, N-((5-((2,6-dioxo-1,2,3,6-tetrahydropyrimidin-4-yl)methoxy)-1-(4-(trifluoromethyl)phenyl)-1,2,3,4-tetrahydroquinolin-3-yl)methyl)methanesulfonamide], 1 to 10 µM.
Same read-out and setting: then `CC(=O)N(CC(=O)O)Cc1cc2c(c(-c3ccc(C(F)(F)F)cc3)c1)CNCC2` [Cpd. No. 37, N-acetyl-N-((8-(4-(trifluoromethyl)phenyl)-1,2,3,4-tetrahydroisoquinolin-6-yl)methyl)glycine], with more than 10 µM; and `O=C1CC[C@H](C(=O)NCC2Cc3ncccc3N(c3ccc(C(F)(F)F)cc3)C2)N1` (stereo partly drawn) [Cpd. No. 29, (2R)-5-oxo-N-((1-(4-(trifluoromethyl)phenyl)-1,2,3,4-tetrahydro-1,5-naphthyridin-3-yl)methyl)pyrrolidine-2-carboxamide], with less than 1 µM; and `O=C(NCC1Cc2ncccc2N(c2ccc(C(F)(F)F)cc2)C1)C1CC1` (centres unmarked) [Cpd. No. 18, N-((1-(4-(trifluoromethyl)phenyl)-1,2,3,4-tetrahydro-1,5-naphthyridin-3-yl)methyl)cyclopropanecarboxamide], with less than 1 µM.
